The text below walks through data of US11512053B2, “Arginine methyltransferase inhibitors and uses thereof” (priority 2013, dated 2022).

Experiment [1] concerns mono-methyl arginine in RKO cells. Briefly: RKO Methylation Assay, In Cell Western (ICW) for detection of mono-methyl arginine and DNA content. It counts as cell-based. To be noted: Homo sapiens, RKO, 72 h, RKO cells, read-out: In Cell Western EC30. Put shortly: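 RKO cells were treated with compound for 72 hours at 37 °C, methanol-fixed and stained overnight at 4 °C with anti-mono-methyl arginine (1:200), with DRAQ5 for DNA. Odyssey 800/700 nm intensity ratio was normalized to DMSO and 20 μM reference-compound controls. EC30 from triplicate nine-point curves.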

Experiment [2] addresses full-length human PRMT8 isoform 1 (Homo sapiens, UniProt Q9NR22). In words: PRMT8 Biochemical Assay (3H-SAM Flashplate, peptide substrate). To be noted: read-out: Biochemical IC50 PRMT8. In outline: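 Scintillation Flashplate capture of biotinylated histone H4 (31-45) peptide (150 nM) methylated by 1.5 nM PRMT8 using 3H-SAM (50 nM) with unlabelled SAM (550 nM); enzyme and compound preincubated 30 min, room temperature, in Bicine pH 7.6 buffer with TCEP, BSG, Tween 20 and 2% DMSO. Stopped with excess cold SAM (400 uM); IC50 from % inhibition, min control 1 mM SAH.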

[3] abbreviates: 72 hours compound incubation, mono-methyl arginine signal normalised to DNA content (DRAQ5), percent activation vs 20 μM reference compound.
[4] abbreviates: 72 hours incubation, mono-methyl arginine signal normalised to DNA content, single experiment or average of multiple experiments.
Where [5] appears, read: single experiment or average of multiple experiments.

Read-outs that look alike come from different tables or passages of the source.

Chain of full-length human PRMT8 isoform 1 (Q9NR22 whole entry, canonical isoform): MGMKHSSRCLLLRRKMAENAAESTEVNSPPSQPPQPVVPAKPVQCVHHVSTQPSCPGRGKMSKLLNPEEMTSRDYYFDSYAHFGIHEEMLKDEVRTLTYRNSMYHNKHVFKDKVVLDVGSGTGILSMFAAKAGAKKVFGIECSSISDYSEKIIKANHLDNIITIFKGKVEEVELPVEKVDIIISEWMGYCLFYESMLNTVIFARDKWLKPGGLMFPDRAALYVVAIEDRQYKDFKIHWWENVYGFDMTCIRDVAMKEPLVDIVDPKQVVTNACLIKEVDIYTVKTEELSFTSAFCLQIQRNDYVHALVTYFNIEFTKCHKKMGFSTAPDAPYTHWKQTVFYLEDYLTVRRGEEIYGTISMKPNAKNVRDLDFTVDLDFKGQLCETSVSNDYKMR

With `CCN(C(=O)CCC(C)C)[C@H]1CC[C@@H](c2n[nH]cc2CN(C)CCNC)CC1` [Compound 251], the EC30 in experiment [1] (setting [3]) is below 3000 nM; in experiment [1] (setting [4]), 1450 nM. Besides, the concentration for half-maximal inhibition (IC50) is below 100 nM in experiment [2] and 20.7 nM in experiment [2] (setting [5]).
As to `CNCCN(C)Cc1c[nH]nc1[C@H]1CC[C@H](N(CCOC)C(=O)CC(C)C)CC1` [Compound 252], the concentration for an effect of 30% (EC30) in experiment [1] (setting [3]) was below 3000 nM; in experiment [1] (setting [4]) it was 267 nM. Further, the IC50 in experiment [2] was below 100 nM; in experiment [2] (setting [5]), 51.5 nM.
For `CNCCN(C)Cc1c[nH]nc1[C@H]1CC[C@]2(CCOC2(C)C)CC1` [Compound 253], the 30% effect concentration (EC30) in experiment [1] (setting [3]) is below 3000 nM; in experiment [1] (setting [4]) it was 56.6 nM. The figures for the IC50 in experiment [2] and in experiment [2] (setting [5]) were below 100 nM and 11.7 nM, respectively.
Consider `CNCCN(C)Cc1c[nH]nc1[C@H]1CC[C@H](N(CCOC)C(=O)CCC(C)C)CC1` [Compound 254], for which the EC30 in experiment [1] (setting [3]) is below 3000 nM; in experiment [1] (setting [4]), 1340 nM. In addition, the IC50 is below 100 nM in experiment [2] and 44 nM in experiment [2] (setting [5]).
As to `CNCCN(C)Cc1c[nH]nc1C1CCC(C)(C)[C@@H](C(=O)OC)C1` (stereo partly drawn) [Compound 255], the concentration for an effect of 30% (EC30) in experiment [1] (setting [3]) was below 3000 nM; in experiment [1] (setting [4]), 214 nM. In addition, the IC50 in experiment [2] is below 100 nM; in experiment [2] (setting [5]) it was 24.5 nM.
On to `CNCCN(C)Cc1c[nH]nc1C1CCC(C)(C)[C@H](C(=O)OC)C1` (stereo partly drawn) [Compound 256], for which the figures for the EC30 in experiment [1] (setting [3]) and in experiment [1] (setting [4]) were below 3000 nM and 316 nM, respectively. The IC50 in experiment [2] was below 100 nM; in experiment [2] (setting [5]), 44 nM.
With `CNCCN(C)Cc1cnn(C)c1[C@H]1CC[C@]2(CC1)CC(C)(C)CO2` [Compound 257], the EC30 in experiment [1] (setting [3]) was below 3000 nM; in experiment [1] (setting [4]), 13.2 nM. Besides, the IC50 was below 100 nM in experiment [2] and 31 nM in experiment [2] (setting [5]).
For the compound `CNCCN(C)Cc1c[nH]nc1[C@H]1CC[C@H](C(=O)N(C)CCOc2ccccc2)CC1` [Compound 258], the EC30 is below 3000 nM in experiment [1] (setting [3]) and 303 nM in experiment [1] (setting [4]). Also, the IC50 in experiment [2] is below 100 nM; in experiment [2] (setting [5]) it was 10.8 nM.
In the case of `CNCCN(C)Cc1c[nH]nc1[C@H]1CC[C@@H](C(=O)N(C)CCOc2ccccc2)CC1` [Compound 259], the concentration for an effect of 30% (EC30) is below 3000 nM in experiment [1] (setting [3]) and 408 nM in experiment [1] (setting [4]). Also, the figures for the IC50 in experiment [2] and in experiment [2] (setting [5]) were below 100 nM and 17.1 nM, respectively.
As to `CNCCN(C)Cc1c[nH]nc1[C@H]1CC[C@@]2(CCC(C)(C)O2)CC1` [Compound 260], the concentration for an effect of 30% (EC30) was below 3000 nM in experiment [1] (setting [3]) and 207 nM in experiment [1] (setting [4]). In addition, the IC50 is below 100 nM in experiment [2] and 37.3 nM in experiment [2] (setting [5]).
As for `CNCCN(C)Cc1c[nH]nc1[C@H]1CC[C@@H](N(CCOC)C(=O)CCC(C)C)CC1` [Compound 261], the EC30 in experiment [1] (setting [3]) was below 3000 nM; in experiment [1] (setting [4]) it was 289 nM. For the same compound, the figures for the IC50 in experiment [2] and in experiment [2] (setting [5]) were below 100 nM and 16.7 nM, respectively.
Turning to `CNCCN(C)Cc1c[nH]nc1C1CCC(C)(C)[C@H](C(=O)NCC(C)C)C1` (stereo partly drawn) [Compound 262], the EC30 in experiment [1] (setting [3]) is below 3000 nM; in experiment [1] (setting [4]), 289 nM. Moreover, the figures for the half-inhibitory concentration (IC50) in experiment [2] and in experiment [2] (setting [5]) were below 100 nM and 72.4 nM, respectively.

As usually defined, the EC30 is the point of the concentration-response curve where the effect stands at 30%. The IC50 is the concentration that inhibits the measured activity by half.
